The text below walks through data of US20070066587A1, “Substituted azetidine compounds, their preparation and use as medicaments” (LABORATORIOS DEL DR. ESTEVE S.A, priority 2004, published 2007).

Common to all, as to format: in vivo
For assay [1], the system named is Male NMRI mice. The assay can be described thus: Mouse tetrad model, sedation, agonistic effect. The following applies: 5 mg/kg i.v., 20 minutes after injection. From the text: (§1) Substances with affinity for cannabinoid receptors are known to produce a wide range of pharmacological effects. It is also known that intravenous administration of a substance with affinity for cannabinoid receptors in mice produces analgesia, hypothermia, sedation and catalepsy. Individually, none of these effects can be considered as proof that a tested substance has affinity for cannabinoid-receptors, since all of these effects are common for various classes of centrally active agents. However, substances, which show all of these effects, i.e. substances that are active in this so-called tetrad model are considered to have affinity for the cannabinoid receptors. It has further been shown that cannabinoid receptor antagonists are higly effective in blocking the effects of a cannabinoid agonist in the mouse tetrad model.
(§2) The tetrad model is described, for example, in the publication of A. C. Howlett et al, International Union of Pharmacology XXVII. Classification of Cannabinoid Receptors, Pharmacol Rev 54, 161-202, 2002 and David R. Compton et al., “In-vivo Characterization of a Specific Cannabinoid Receptor Antagonist (SR141716A): Inhibition of Tetrahydrocannbinol-induced Responses and Apparent Agonist Activity”, J. Pharmacol. Exp. Ther. 277 , 2, 586-594, 1996. The corresponding parts of the description are hereby incorporated by reference.
(§3) Male NMRI mice with a weight of 20-30 g (Harlan, Barcelona, Spain) are used in all of the following experiments.
(§4) Before testing in the behavioral procedures given below, mice are acclimatized to the experimental setting. Pre-Treatment control values are determined for analgesia hot plate latency (in seconds), rectal temperature, sedation and catalepsy.
(§5) In order to determine the agonistic activty of the substance to be tested, the mice are injected intravenously with the substance to be tested or the vehicle alone. 15 minutes after injection, latency in hot plate analgesia is measured. Rectal temperature, sedation and catalepsy are measured 20 minutes after injection.
Determination of Sedation and Ataxia
Sedation and ataxia is determined according to the method described in Desmet L. K. C. et al. “Anticonvulsive properties of Cinarizine and Flunarizine in Rats and Mice”, Arzneim.-Forsch. (Frug Res) 25, 9, 1975. The respective description is hereby incorporated by reference and forms part of the present disclosure.
The chosen scoring system is
2: obvious calmness and quiet;
prior to as well as after treatment.
(§6) The percentage of sedation is determined according to the formula: % of sedation=arithmetic mean/3×100

Assay [2] concerns Male NMRI mice. In words: Mouse tetrad model, sedation, antagonistic effect against Win 55212-2. The following applies: 5 mg/kg i.v. prior to Win 55212-2 1.25 mg/kg i.v.
Source text: as §1, with “It has further been shown that cannabinoid receptor antagonists are higly effective in blocking the effects of a cannabinoid agonist in the mouse tetrad model.” left out
as §4
In order to determine the antagonistic activity the identical procedure is used as for the determination of the agonistic effects, but with the difference that the substance to be evaluated for its antagonistic activity is injectected 5 minutes before the intravenous injection of 1.25 mg/kg Win-55,212 a known cannabinoid-receptor agonist. […]
as §6

Assay [3] deals with Male NMRI mice. The assay can be described thus: Mouse tetrad model, catalepsy, agonistic effect. The following applies: 5 mg/kg i.v., 20 minutes after injection.
Source text: as §1, §2, §3, §4, §5
Catalepsy is determined according to the method described in Alpermann H. G. et al. “Pharmacological effets of Hoe 249: A new potential antidepressant”, Drugs Dev. Res. 25, 267-282. 1992. The respective description is hereby incorporated by reference and forms part of the present disclosure.
The cataleptic effect of the substance to be tested is evaluated according to the duration of catalepsy, whereby the animals are placed head downwards with their kinlegs upon the top of the wooden block.
The chosen scoring system is:
The percentage of catalepsy is determined according ot the following formula: % Catalepsy=arithmetic mean/6×100

For assay [4], the system named is Male NMRI mice. The assay can be described thus: Mouse tetrad model, hot plate analgesia, agonistic effect. The following applies: 5 mg/kg i.v., 15 minutes after injection.
Source text: as §1
(§7) The tetrad model is described, for example, in the publication of A. C. Howlett et al, International Union of Pharmacology XXVII. […]
as §4, §5
The hot plate analgesia is determined according to the method described in Woolfe D. et al. “The evaluation of analgesic action of pethidine hydrochloride (Demerol)”, J. Pharmacol. Exp. Ther. 80, 300-307, 1944. […]
The mice are placed on a hot plate (Harvard Analgesimeter) at 55±0.5° C. until they show a painful sensation by licking their paws or jumping and the time for these sensations to occur is recorded. This reading is considered the basal value (B). […]
The degree of analgesia is calculated from the formula: % MPE of Analgesia=(PT-B)/(PC-B)×100 MPE=Maximum possible effect.

The test system of assay [5] is Male NMRI mice. The assay can be described thus: Mouse tetrad model, hypothermia, agonistic effect. The following applies: 5 mg/kg i.v., 20 minutes after injection.
Source text: as §1, §2, §3, §4, §5
Hypothermia is determined according to the method described in David R. Compton et al. “In-vivo Characterization of a Specific Cannabinoid Receptor Antagonist (SR141716A) Inhibition of Tetrahydrocannbinol-induced Responses and Apparent Agonist Activity”, J. Pharmacol Exp Ther. 277, 2, 586-594, 1996. The respective description is hereby incorporated by reference and forms part of the present disclosure.
The base-line rectal temperatures are determined with a thermometer (Yello Springs Instruments Co., Panlabs) and a thermistor probe inserted to 25 mm before the administration of the substance to be tested. Rectal temperature is again measured 20 minutes after the administration of the substances to be tested. The temperature difference is calculated for each animal, whereby differences of ≧−2° C. are considered to represent activity.

Assay [6] concerns Male NMRI mice. The assay can be described thus: Mouse tetrad model, hypothermia, antagonistic effect against Win 55212-2. The note with it: 5 mg/kg i.v. prior to Win 55212-2 1.25 mg/kg i.v.
Source text: as §1, §7, §4
In order to determine the antagonistic activity the identical procedure is used as for the determination of the agonistic effects, but with the difference that the substance to be evaluated for its antagonistic activity is injectected 5 minutes before the intravenous injection of 1.25 mg/kg Win-55,212 a known cannabinoid-receptor agonist.
Hypothermia is determined according to the method described in David R. Compton et al. “In-vivo Characterization of a Specific Cannabinoid Receptor Antagonist (SR141716A) Inhibition of Tetrahydrocannbinol-induced Responses and Apparent Agonist Activity”, J. Pharmacol Exp Ther. 277, 2, 586-594, 1996. […]
The base-line rectal temperatures are determined with a thermometer (Yello Springs Instruments Co., Panlabs) and a thermistor probe inserted to 25 mm before the administration of the substance to be tested. […]

Regarding `C[C@@H]1[C@@H](OS(=O)(=O)c2ccc(F)cc2)CN1C(c1ccc(Cl)cc1)c1ccc(Cl)cc1` (relative stereo) [Example 1, 4-Fluoro-benzenesulfonic acid 1-[trans-bis-(4-chloro-phenyl)-methyl]-2-methyl-azetidin-3-yl ester], the “Agonistic effect D: Sedation” value in the assay with Male NMRI mice [1] is listed as 0. Also, the “Antagonistic Effect D: Sedation” value in the assay with Male NMRI mice [2] came to 20. In the assay with Male NMRI mice [3], the “Agonistic effect C: Catalepsy” value is reported as 0. In addition, the “Agonistic effect A: Hot-Plate test” value in the assay on Male NMRI mice [4] is 5. The “Agonistic effect B: Hypothermia” value with Male NMRI mice [5] was 0. In the assay with Male NMRI mice [6], the “Antagonistic Effect B: Hypothermia” value was found to be 100.
Take `C[C@@H]1[C@@H](NS(=O)(=O)c2ccc(S(C)(=O)=O)cc2)CN1C(c1ccc(Cl)cc1)c1ccc(Cl)cc1` (relative stereo) [Example 14, N-{trans-1-[Bis-(4-chloro-phenyl)-methyl]-2-methyl-azetidin-3-yl}-4-methylsulfonyl-benzenesulfonamide]: the “Agonistic effect D: Sedation” value in the assay with Male NMRI mice [1] is 0. Besides, the “Antagonistic Effect D: Sedation” value with Male NMRI mice [2] worked out at 9. Besides, the “Agonistic effect C: Catalepsy” value in the assay with Male NMRI mice [3] came out at 0. Besides, the “Agonistic effect B: Hypothermia” value in the assay with Male NMRI mice [5] was determined as 0.
For `C[C@@H]1[C@@H](NS(=O)(=O)c2cccc3nsnc23)CN1C(c1ccc(Cl)cc1)c1ccc(Cl)cc1` (relative stereo) [Example 15, 2,1,3-Benzothiadiazole-4-sulfonic acid {trans-1-[bis-(4-chloro-phenyl)-methyl]-2-methyl-azetidin-3-yl}-amide], the “Agonistic effect D: Sedation” value in the assay on Male NMRI mice [1] was found to be 0. Moreover, in the assay with Male NMRI mice [3], the “Agonistic effect C: Catalepsy” value turned out to be 0. In addition, the “Agonistic effect B: Hypothermia” value with Male NMRI mice [5] amounted to 0. Besides, the “Antagonistic Effect B: Hypothermia” value in the assay with Male NMRI mice [6] is reported as 100.
Turning to `C[C@H]1[C@H](NS(=O)(=O)c2ccc(F)cc2)CN1C(c1ccc(Cl)cc1)c1ccc(Cl)cc1` [Example 5, N-{(2S,3R)-1-[Bis-(4-chloro-phenyl)-methyl]-2-methyl-azetidin-3-yl}-4-fluoro-benzenesulfonamide], the “Agonistic effect D: Sedation” value in the assay with Male NMRI mice [1] stood at 0. Also, the “Agonistic effect C: Catalepsy” value with Male NMRI mice [3] is 0. In addition, the “Agonistic effect A: Hot-Plate test” value with Male NMRI mice [4] amounted to 2. The “Agonistic effect B: Hypothermia” value with Male NMRI mice [5] is recorded as 0. Also, the “Antagonistic Effect B: Hypothermia” value in the assay on Male NMRI mice [6] is 100.
As to `C[C@H]1[C@H](NS(=O)(=O)c2cccs2)CN1C(c1ccc(Cl)cc1)c1ccc(Cl)cc1` [Example 6, Thiophene-2-sulfonic acid {(2S,3R)-1-[bis-(4-chloro-phenyl)-methyl]-2-methyl-azetidin-3-yl}-amide], the “Agonistic effect D: Sedation” value with Male NMRI mice [1] came to 0. Further, the “Agonistic effect C: Catalepsy” value with Male NMRI mice [3] is recorded as 0. Also, the “Agonistic effect A: Hot-Plate test” value in the assay on Male NMRI mice [4] was 0. Also, the “Agonistic effect B: Hypothermia” value in the assay on Male NMRI mice [5] was 0.
